Series [1] can be described thus: Body and adipose tissue weight of CL316,243-treated mice (trial 2, FIG. 3). In kind it is in vivo. From the text:
FIG. 3 is a pair of bar graphs showing the body (FIG. 3a) and adipose (FIG. 3b) weights of mice treated with CL316,243 (hatched bars), and corresponding controls(solid bars).
In trial 2, male, inbred NON mice were fed a control with or without the presence of the β-3 adrenergic agonist CL316,243 for four weeks (at 0.001% CL316,243 by weight in the dietary chow).
In both studies, five treated and five control mice were used. Following the treatments and the killing of the mice, tissues and plasma were taken, chilled to −80 ° C. and shipped to the analysis laboratory at Lipomics Technologies in a frozen state.
Tables 7 and 8 show the concentrations of lipid metabolites present in adipose, plasma, heart and liver tissues in mice treated with CL3 16,243 and their controls. In Tables 5 and 7, the data are expressed as nanomoles per gram of tissue or plasma. In tables 6 and 8, the data are expressed as a percentage of total fatty acids within each lipid class.

The conditions of series [2]: patients taking rosiglitazone; Fuchtenbebusch et al. 2000; cited from earlier work.

Consider 2 compounds from patent publication US20050009005A1, “Methods of using quantitative lipid metabolome data” (Lipomics Technologies, Inc., priority 2001, published 2005).

The structures appear in SMILES notation.

As for `C[C@H](Cc1ccc2c(c1)OC(C(=O)[O-])(C(=O)[O-])O2)NC[C@H](O)c1cccc(Cl)c1.[Na+].[Na+]` [CL316,243], the mouse body weight entry in series [1] (CL316,243 4 weeks vs controls (FIG. 3a)) is “significant decrease”. For the same compound, in series [1] (CL316,243 4 weeks vs controls (FIG. 3b)), the adipose tissue weight result was “significant decrease”.

With `CN(CCOc1ccc(CC2SC(=O)NC2=O)cc1)c1ccccn1` (stereo not drawn) [rosiglitazone], the “body weight of patients” value in series [2] is reported as “gain weight”.
